Measured values from patent US8940497B2, “Enzyme regulating ether lipid signaling pathways” (The Scripps Research Institute, priority 2006, dated 2015).

Tested on: SKOV-3 cells
Experiment: Untargeted LC-MS comparative metabolomics of inhibitor-treated cells
Type: cell-based, human
Conditions: 4 h
Protocol: The following LC-MS conditions were used for analysis of cancer cell metabolomes. Cell pellets were harvested by scraping, isolated by centrifugation at 1,400×g, and dounce-homogenized in 4 mL of a 2:1:1 mixture of chloroform:methanol:Tris buffer (50 mM Tris*HCl, pH 8.0). Samples that were analyzed by targeted LC-MS were homogenized in the presence of the following synthetic standards: C15:0 MAG (50 pmol), C17:0 LPA (50 pmol), and 13C-C16:0 MAGE (25 pmol). Organic and aqueous layers were separated by centrifugation at 1,260×g for 5 min. The organic layer was then removed, dried under a stream of N2, and re-solubilized in 100 μL of chloroform, of which 30 μL was analyzed by LC-MS. Extraction of LPA was performed by acidifying the remaining aqueous layer to a final concentration of 5% formic acid, followed by the addition of 2 mL of chloroform. The mixture was vortexed, the organic layer removed, concentrated to dryness, and dissolved in 100 μL of chloroform, of which 30 μL was analyzed by LC-MS.
LC-MS analysis was performed using an Agilent 1100 LC-MSD SL instrument. […] Mobile phase A was composed of a 95:5 ratio of water:methanol and mobile phase B consisted of 2-propanol, methanol, and water in a 60:35:5 ratio. Solvent modifiers such as 0.1% formic acid and 0.1% ammonium hydroxide were used to assist ion formation as well as improve the LC resolution in both positive and negative ionization modes respectively. The flow rate for each run started at 0.1 mL/min for 5 min, to alleviate backpressure associated with injecting chloroform. The gradient started at 0% B and increased linearly to 100% B over the course of 40 min with a flow rate of 0.4 mL/min, followed by an isocratic gradient of 100% B for 7 min before equilibrating for 8 min at 0% B with a flow rate of 0.5 mL/min.
MS analysis was performed with an electrospray ionization (ESI) source. The capillary voltage was set to 3.0 kV and the fragmentor voltage to 100V. The drying gas temperature was 350° C., the drying gas flow rate was 10 L/min, and the nebulizer pressure was 35 psi. Untargeted data was collected using a mass range of 200-1000 Da and exported as common data format (.CDF) files for computational analysis. Differentially expressed metabolites between sample pairs were identified using the XCMS analyte profiling software (http://metlin/download) that aligns mass peaks from two LC-MS traces and quantifies the relative intensities of global metabolites (5). Significant inhibitor-sensitive peak changes were confirmed by manual quantification using the area under the peak normalized to total ion current. Targeted LC-MS measurements were made using selected ion monitoring (SIM). Peaks were quantified by measuring the area under the peak and normalized to an internal standard (C15:0 MAG) or endogenous lipid (palmitic acid). Absolute MAGE levels were estimated by comparison to a 13C-MAGE standard.
Human ovarian cancer cell lines were obtained form the National Cancer Institute's Developmental Therapeutics Program. The melanoma lines C8161 and MUM-2B were obtained form Mary Hendrix. Cells were maintained in RPMI medium 1640 with 10% (v/v) fetal calf serum at 37° C. in a humidified atmosphere of 5% CO2/95% air. At approximately 80% confluency, cells were trypsinized, counted with the aid of a hemocytometer, and 2.5×10^6 cells were plated in 6 cm dishes. 20 h after plating cells were washed twice with PBS and supplemented with serum free RPMI containing 0.5% BSA (Sigma)(BSA-RPMI) with AS115 (0.01-10 μM) or vehicle (DMSO) at 0.1%. After incubation for 4 h the cells were harvested and analyzed by ABPP or LC-MS.
These experiments were performed using the method of untargeted liquid chromatography-mass spectrometry (LC-MS) for comparative metabolomics. Cells were treated with AS115 (10 μM) or DMSO for 4 h and analyzed by untargeted LC-MS methods. […] Relative mass signals are shown in Table 1, represented as the average values and standard error for three independent experiments.

## CCCCOCC1CCCCC1COCCNC(=O)Oc1ccccc1F (centres unmarked) [AS115]
10 μM
  Levels of lipophilic metabolites (m/z 317, 345, and 347): substantial reduction
  Levels of typical lipid species (free fatty acids, phospholipids, ceramides, monoacylglycerides): none of which were significantly altered
AS115 10 μM or DMSO
  Relative mass signal DMSO/AS115, Ceramide C16: 0.53
  Relative mass signal DMSO/AS115, Ceramide C18: 0.73
  Relative mass signal DMSO/AS115, FFA C14: 0.69
  Relative mass signal DMSO/AS115, FFA C16: 0.69
  Relative mass signal DMSO/AS115, FFA C18: 0.76
  Relative mass signal DMSO/AS115, FFA C18:1: 0.56
  Relative mass signal DMSO/AS115, FFA C20:4: 1.04
  Relative mass signal DMSO/AS115, MAG C16: 1.00
  Relative mass signal DMSO/AS115, MAG C18:1: 0.83
  Relative mass signal DMSO/AS115, PA C32: 1.01
  Relative mass signal DMSO/AS115, PA C34: 1.41
  Relative mass signal DMSO/AS115, PA C34:1: 0.95
  Relative mass signal DMSO/AS115, PA C36:1: 0.99
  Relative mass signal DMSO/AS115, PA C36:2: 0.74
  Relative mass signal DMSO/AS115, PC C32: 1.07
  Relative mass signal DMSO/AS115, PC C34: 0.96
  Relative mass signal DMSO/AS115, PC C34:1: 1.01
  Relative mass signal DMSO/AS115, PC C36:1: 0.68
  Relative mass signal DMSO/AS115, PC C36:2: 1.07
  Relative mass signal DMSO/AS115, PE C32: 1.13
  Relative mass signal DMSO/AS115, PE C34: 0.94
  Relative mass signal DMSO/AS115, PE C34:1: 0.84
  Relative mass signal DMSO/AS115, PE C36:1: 0.94
  Relative mass signal DMSO/AS115, PE C36:2: 0.61
